Measured values: paper PMC10620772, “Design, synthesis, and biological evaluation of new pyrimidine-5-carbonitrile derivatives as novel anti-cancer, dual EGFR^WT/COX-2 inhibitors with docking studies” (RSC Advances, 2023)
Values joined by “and” are separate entries in the source; they are usually repeats but may differ in a detail not shown here. Equal entries are not always repeated. “Also recorded” adds a separate entry of the source. Where two headings read alike, the source gives them in different places.

Key:
Type in all cases: cell-based, human
[1] = tested on: SK-MEL-28; test: NCI60 antitumor screening
[2] = tested on: ACHN; test: NCI60 antitumor screening
[3] = tested on: T-47D; test: NCI60 antitumor screening
[4] = tested on: HL-60(TB); test: NCI60 antitumor screening
[5] = tested on: HT29; test: NCI60 antitumor screening
[6] = tested on: HCC-2998; test: NCI60 antitumor screening
[7] = tested on: NCI60 cell lines panel; test: NCI60 antitumor screening, full panel
Summary of the method: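 Single-concentration screen at 10 μM across the NCI60 panel (leukaemia, NSCLC, colon, CNS, melanoma, ovarian, renal, prostate, breast). Results are expressed as percent growth inhibition (GI%) of treated lines.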

[8] = tested on: IGROV1; test: NCI60 antitumor screening
[9] = tested on: SF-539; test: NCI60 antitumor screening
[10] = tested on: SF-268; test: NCI60 antitumor screening
[11] = tested on: SF-295; test: NCI60 antitumor screening
[12] = tested on: COLO 205; test: NCI60 antitumor screening
[13] = tested on: NCI/ADR-RES; test: NCI60 antitumor screening
[14] = tested on: OVCAR-3; test: NCI60 antitumor screening
[15] = tested on: PC-3; test: NCI60 antitumor screening
[16] = tested on: UACC-62; test: NCI60 antitumor screening; conditions: Homo sapiens
[17] = Homo sapiens, SF-539, five-dose

## N#Cc1c(-c2ccc(F)cc2)nc(SCc2ccccc2)nc1N1CCNCC1 [4e, 2-(Benzylthio)-4-(4-fluorophenyl)-6-(piperazin-1-yl) pyrimidine-5-carbonitrile]
[1]; Homo sapiens, SK-MEL-28, five-dose
  GI50: 16.3 µM
[1]; Homo sapiens, SK-MEL-28, five-dose, read-out: LC50 (the source's name)
  CC50: 56.3 µM
[1]; Homo sapiens, 10 μM single dose, SK-MEL-28 (melanoma), read-out: growth inhibition percent (GI%)
  inhibition at 10 µM: > 100%
[1]; five-dose
  TGI: 30.30 µM
[2]; Homo sapiens, ACHN, five-dose
  GI50: 14 µM
  LC50: 54 µM
[2]; Homo sapiens, 10 μM single dose, ACHN (renal cancer), read-out: growth inhibition percent (GI%)
  inhibition at 10 µM: > 100%
[2]; five-dose
  TGI: 27.50 µM
[3]; Homo sapiens, T47D, 10 μM single dose, T-47D (breast cancer), read-out: growth inhibition percent (GI%)
  inhibition at 10 µM: > 100%
[3]; Homo sapiens, T47D, five-dose
  GI50: 10.1 µM
[3]; Homo sapiens, T47D, five-dose, read-out: LC50 (the source's name)
  CC50: 61 µM
[3]; five-dose
  TGI: 24.80 µM
[4]; Homo sapiens, HL-60, five-dose
  GI50: 4.5 µM
[4]; Homo sapiens, HL-60, five-dose, read-out: LC50 (the source's name)
  CC50: 46.5 µM
[4]; Homo sapiens, 10 μM single dose, HL-60(TB) (leukaemia), read-out: growth inhibition percent (GI%)
  inhibition at 10 µM: > 100%
[4]; five-dose
  TGI: 17.30 µM
[5]; Homo sapiens, HT-29, 10 μM single dose, HT29 (colon cancer), read-out: growth inhibition percent (GI%)
  inhibition at 10 µM: > 100%
[5]; Homo sapiens, HT-29, five-dose
  GI50: 3.3 µM
[5]; Homo sapiens, HT-29, five-dose, read-out: LC50 (the source's name)
  CC50: 36.6 µM
[5]; five-dose
  TGI: 10.50 µM
[6]; Homo sapiens, HCC 2998, five-dose
  GI50: 1.76 µM
[6]; Homo sapiens, HCC 2998, five-dose, read-out: LC50 (the source's name)
  CC50: 5.89 µM
[6]; Homo sapiens, 10 μM single dose, HCC-2998 (colon cancer), read-out: growth inhibition percent (GI%)
  inhibition at 10 µM: > 100%
[6]; five-dose
  TGI: 3.22 µM
[7]; 10 μM
  One-dose activity over the NCI60 panel: lethal effect to all cancer subpanels; also recorded: Lethal to all NCI60 cell lines
[7]; Homo sapiens, 10 μM single dose, mean over NCI60 cell lines, read-out: Mean growth inhibition percent (GI%)
  inhibition at 10 µM: > 100%
[7]; Homo sapiens, average of all cell lines, read-out: Full panel MG-MID (GI50)
  GI50: 10.7 µM
[7]; Homo sapiens, five-dose, read-out: GI50 range, leukemia and colon cancer cell lines
  GI50: 1.77 to 17.1 µM
[7]; Homo sapiens, five-dose, read-out: LC50 range over examined cell lines
  CC50: 5 to 69 µM
[7]; average of all cell lines
  Full panel MG-MID (TGI): 23.60 μM and 23.60 ^e μM
[8]; Homo sapiens, IGROV-1, 10 μM single dose, IGROV1 (ovarian cancer), read-out: growth inhibition percent (GI%)
  inhibition at 10 µM: > 100%
[8]; Homo sapiens, IGROV-1, five-dose
  GI50: 14.7 µM
[8]; Homo sapiens, IGROV-1, five-dose, read-out: LC50 (the source's name)
  CC50: 56.7 µM
[8]; five-dose
  TGI: 28.90 µM
[9]; [17]
  GI50: 15.7 µM
  LC50: 54.9 µM
[9]; Homo sapiens, 10 μM single dose, SF-539 (CNS cancer), read-out: growth inhibition percent (GI%)
  inhibition at 10 µM: > 100%
[9]; five-dose
  TGI: 29.40 µM
[10]; Homo sapiens, SF-268, five-dose
  GI50: 12.9 µM
[10]; Homo sapiens, SF-268, five-dose, read-out: LC50 (the source's name)
  CC50: 65.4 µM
[10]; Homo sapiens, 10 μM single dose, SF-268 (CNS cancer), read-out: growth inhibition percent (GI%)
  inhibition at 10 µM: > 100%
[10]; five-dose
  TGI: 29.10 µM
[11]; Homo sapiens, SF-295, five-dose
  GI50: 15.8 µM
[11]; Homo sapiens, SF-295, five-dose, read-out: LC50 (the source's name)
  CC50: 57.5 µM
[11]; Homo sapiens, 10 μM single dose, SF-295 (CNS cancer), read-out: growth inhibition percent (GI%)
  inhibition at 10 µM: > 100%
[11]; five-dose
  TGI: 30.10 µM
[12]; Homo sapiens, COLO 205
  IC50: 1.66 µM
[12]; Homo sapiens, COLO 205, five-dose
  GI50: 1.66 µM
[12]; Homo sapiens, COLO 205, five-dose, read-out: LC50 (the source's name)
  CC50: 6.04 µM
[12]; Homo sapiens, 10 μM single dose, COLO 205 (colon cancer), read-out: growth inhibition percent (GI%)
  inhibition at 10 µM: > 100%
[12]; five-dose
  TGI: 3.17 µM
[13]; Homo sapiens, NCI/ADR-RES, five-dose
  GI50: 11.7 µM
[13]; Homo sapiens, NCI/ADR-RES, five-dose, read-out: LC50 (the source's name)
  CC50: 64.4 µM
[13]; Homo sapiens, 10 μM single dose, NCI/ADR-RES (ovarian cancer), read-out: growth inhibition percent (GI%)
  inhibition at 10 µM: > 100%
[13]; five-dose
  TGI: 27.40 µM
[14]; Homo sapiens, OVCAR-3, five-dose
  GI50: 14.3 µM
[14]; Homo sapiens, OVCAR-3, five-dose, read-out: LC50 (the source's name)
  CC50: 59.1 µM
[14]; Homo sapiens, 10 μM single dose, OVCAR-3 (ovarian cancer), read-out: growth inhibition percent (GI%)
  inhibition at 10 µM: > 100%
[14]; five-dose
  TGI: 29.10 µM
[15]; Homo sapiens, PC-3, five-dose
  GI50: 11.8 µM
[15]; Homo sapiens, PC-3, five-dose, read-out: LC50 (the source's name)
  CC50: 56.4 µM
[15]; Homo sapiens, 10 μM single dose, PC-3 (prostate cancer), read-out: growth inhibition percent (GI%)
  inhibition at 10 µM: > 100%
[15]; five-dose
  TGI: 25.80 µM
[16]; UACC-62, five-dose
  GI50: 14.4 µM
[16]; UACC-62, five-dose, read-out: LC50 (the source's name)
  CC50: 55 µM
[16]; 10 μM single dose, UACC-62 (melanoma), read-out: growth inhibition percent (GI%)
  inhibition at 10 µM: > 100%
